The species entered for this experiment is Mus musculus. In words: Compound was evaluated for meiosis inducing effect on immature mouse oocytes; Positive. In kind it is functional.

For `CC(C)=CCC[C@@H](C)[C@H]1CC=C2C3=C(CC[C@@]21C)[C@@]1(C)CC[C@H](O)C(C)(C)[C@@H]1CC3`, the Activity result was “Positive”.
